Legend:
[1] = test system: human platelet aggregation by ADP; assay: Determination of platelet aggregation in vitro (by ADP), human platelet rich plasma; type: cell-based; conditions: human PRP, n = 3, ADP 0.6-1 μM, 37° C., read-out: Inhibition of platelet aggregation by ADP, IC50, human
Method: (§1) Method […] The sodium citrate--supplemented blood was centrifuged at 950 rpm for 10 minutes and 2,000 rpm for 10 minutes respectively at room temperature to obtain platelet rich plasma (PRP) and platelet poor plasma (PPP). PRP was diluted with PPP to adjust the number of platelets to be 500,000/μl. Platelet aggregation measured spectroscopically in accordance with Born's method (Nature 194: 927, 1962) using an aggregometer (HEMA TRACER VI Toa Iyo Denshi). The PRP (250 μl) was incubated at 37° C. for 2 minutes, to which was then added 25 μl of a test drug solution. Two minutes later, 25 μl of an agent for causing agglutination. The effect of the test drug was shown by the inhibition rate of the maximum aggregation rate of the test group against that of the control group. ADP was used in the minimum concentration (0.6-1 μM) capable of obtaining maximum aggregation. Inhibitory effect on platelet aggregation by ADP of the compounds of Working Examples

[2] = test system: guinea pig platelet aggregation by ADP; assay: Determination of platelet aggregation in vitro (by ADP), guinea pig platelet rich plasma; type: cell-based; conditions: Cavia porcellus, guinea pig PRP, n = 3, ADP 0.6-1 μM, 37° C., read-out: Inhibition of platelet aggregation by ADP, IC50, guinea pigs
Method: as §1

[3] = test system: platelet aggregation caused by ADP; assay: Ex vivo platelet aggregation experiment (ADP) after oral administration to guinea pigs; type: in vivo, guinea pig
Method: Method After fasting overnight, guinea pigs were orally administered with a test drug solution (2 ml/kg). Blood was collected from the animals, under anesthesia with pentobarbital, after 1, 4 and 24 hours respectively. By the method described above, PRP was prepared and the platelet aggregation caused by ADP was measured. The rate of inhibition of aggregation was determined by the aggregation rate obtained in the test groups against that obtained in the control. The test drug was administered orally as a solution in distilled water. ADP aggregation inhibiting action by the compound of working Example 1 in guinea pigs

[4] = test system: activated platelets of guinea pigs; assay: Binding experiment in vitro: specific binding of 125I-fibrinogen to activated platelets of guinea pigs; parameters: species or system guinea pig; conditions: n=3; 125I-fibrinogen 0.1 μM; ADP 5×10^-5 M; 2 hours at room temperature; read-out: IC50 value against the specific binding of 125I-fibrinogen to activated platelets of guinea pigs
Method: Method Washed platelets were prepared from sodium citrate--supplemented blood of guinea pig, which were suspended in a Hepes Tyrode solution (pH 7.5) to adjust the number of platelets to be 500,000/μl. To 70 μl of this suspension was added 10 μl of an ADP solution (final concentration: 5×10^-5 M), and the mixture was left standing for 15 minutes at room temperature. To the mixture were added a solution of the test drug and 80 μl of a ^125 I-fibrinogen solution (final concentration: 0.1 μM), which was left standing for 2 hours at room temperature. Onto a 20% sucrose buffer solution was overlaid 100 μl of the reaction mixture, which was subjected to centrifuge at 3,000 rpm to separate platelet-adhesive ^125 I-fibrinogen from non-adhesive one. The radioactivity of the platelet-adhesive ^125 I-fibrinogen was determined. From the value obtained from the test groups against specific binding of the control group (processed with the buffer solution), the adhesion inhibiting ratio was determined. Action of the compound of Working Example 1 against the specific binding of ^125 I-fibrinogen to activated platelets of guinea pigs.

Compound	IC50 [1]	IC50 [2]	further results
COC(=O)C[C@H]1C(=O)N(CC(=O)O)CCN1C(=O)[C@H](Cc1ccc(F)cc1)NC(=O)c1ccc(C(=N)N)cc1 [Working Example 21]	26 nM	38 nM	–
COC(=O)C[C@H]1C(=O)N(CC(=O)O)CCN1C(=O)C(Cc1ccc(O)c(O)c1)NC(=O)c1ccc(C(=N)N)cc1 (mixture of isomers) [Working Example 24]	24 nM	46 nM	–
COC(=O)C[C@H]1C(=O)N(CC(=O)O)CCN1C(=O)[C@H](Cc1ccc(O)cc1F)NC(=O)c1ccc(C(=N)N)cc1 [Working Example 23]	17 nM	38 nM	–
C=CCOc1ccc(C[C@H](NC(=O)c2ccc(C(=N)N)cc2)C(=O)N2CCN(CC(=O)O)C(=O)[C@@H]2CC(=O)OC)cc1 [Working Example 18]	20 nM	26 nM	–
COC(=O)C[C@H]1C(=O)N(CC(=O)O)CCN1C(=O)[C@H](Cc1ccc(OC)cc1)NC(=O)c1ccc(C(=N)N)cc1 [Working Example 3, (S)-4-(4-Amidinobenzoyl-O-Methyl-L-Tyrosyl)-3-Methoxycarbonylmethyl-2-Oxopiperazine-1 -Acetic Acid]	10 nM	15 nM	ADP aggregation inhibition rate ([3]; 1 mg/kg p.o., after 1 hour, n=6): 95%; ADP aggregation inhibition rate ([3]; 1 mg/kg p.o., after 4 hour, n=6): 100%
COC(=O)C[C@H]1C(=O)N(CC(=O)O)CCN1C(=O)[C@H](Cc1ccc(O)cc1)NC(=O)c1ccc(C(=N)N)cc1.Cl [Working Example 1, (S)-4-(4-Amidinobenzoyl-L-Tyrosyl)-3-Methoxycarbonylmethyl-2-Oxopiperazine-1-Acetic Acid Hydrochloride]	20 nM	37 nM	IC50 [4]: 2.7 nM; ADP aggregation inhibition rate ([3]; 3 mg/kg p.o., after 1 hour, n=4): 100%; ADP aggregation inhibition rate ([3]; 3 mg/kg p.o., after 4 hour, n=4): 100%; ADP aggregation inhibition rate ([3]; 3 mg/kg p.o., after 24 hour, n=3): 100%
CCCOc1ccc(C[C@H](NC(=O)c2ccc(C(=N)N)cc2)C(=O)N2CCN(CC(=O)O)C(=O)[C@@H]2CC(=O)OC)cc1 [Working Example 5]	40 nM	34 nM	–
CCOc1ccc(C[C@H](NC(=O)c2ccc(C(=N)N)cc2)C(=O)N2CCN(CC(=O)O)C(=O)[C@@H]2CC(=O)OC)cc1 [Working Example 4, (S)-4-(4-amidinobenzoyl-O-ethyl-L-tyrosyl)-3-methoxycarbonylmethyl-2-oxopiperazine-1-acetic acid]	–	120 nM	–
COC(=O)C[C@H]1C(=O)N(CC(=O)O)CCN1C(=O)[C@H](Cc1ccc(OC)cc1)NC(=O)c1ccc(CCN)cc1 [Working Example 31]	12 nM	18 nM	–
COC(=O)C[C@H]1C(=O)N(CC(=O)O)CCN1C(=O)[C@H](Cc1ccc(O)c(F)c1)NC(=O)c1ccc(C(=N)N)cc1 [Working Example 22]	18 nM	47 nM	–

Source: patent US5550131A, “2-piperazinone compounds and their use” (Takeda Chemical Industries, Ltd., priority 1993, dated 1996)
